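Protocol summary: plate cells (96-well), add compound at 5 concentrations, incubate 48 h, interpolate endpoints linearly. Here, GI50 denotes the concentration required for 50% inhibition of growth. Definition used: TGI = concentration required for complete inhibition of growth.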
How the values were obtained:
Assay in all cases: DTP human tumour cell line panel, 48 h
DU-145 prostate = tested on: DU-145 prostate
UACC-257 melanoma = tested on: UACC-257 melanoma
NCI/ADR-RES ovarian = tested on: NCI/ADR-RES ovarian
RPMI-8226 leukemia = tested on: RPMI-8226 leukemia
HCT-116 colon = tested on: HCT-116 colon
SW-620 colon = tested on: SW-620 colon
U251 CNS = tested on: U251 CNS
MOLT-4 leukemia = tested on: MOLT-4 leukemia
HCC-2998 colon = tested on: HCC-2998 colon
HCT-15 colon = tested on: HCT-15 colon
HOP-92 NSCLC = tested on: HOP-92 NSCLC
BT-549 breast = tested on: BT-549 breast
A549 NSCLC = tested on: A549 NSCLC
MDA-MB-435 = tested on: MDA-MB-435
NCI-H23 lung = tested on: NCI-H23 lung
CAKI-1 renal = tested on: CAKI-1 renal
SK-MEL-28 melanoma = tested on: SK-MEL-28 melanoma
SNB-19 CNS = tested on: SNB-19 CNS
PC-3 prostate = tested on: PC-3 prostate
SR leukemia = tested on: SR leukemia
SK-MEL-2 melanoma = tested on: SK-MEL-2 melanoma
OVCAR-3 ovarian = tested on: OVCAR-3 ovarian
SK-OV-3 ovarian = tested on: SK-OV-3 ovarian
KM12 colon = tested on: KM12 colon
HS 578T breast = tested on: HS 578T breast
TK-10 renal = tested on: TK-10 renal
LOX IMVI melanoma = tested on: LOX IMVI melanoma
CCRF-CEM leukemia = tested on: CCRF-CEM leukemia
SK-MEL-5 melanoma = tested on: SK-MEL-5 melanoma
OVCAR-4 ovarian = tested on: OVCAR-4 ovarian
SNB-75 CNS = tested on: SNB-75 CNS
ACHN renal = tested on: ACHN renal
A498 renal = tested on: A498 renal
K-562 leukemia = tested on: K-562 leukemia
RXF 393 renal = tested on: RXF 393 renal
786-0 renal = tested on: 786-0 renal
UACC-62 melanoma = tested on: UACC-62 melanoma
M14 melanoma = tested on: M14 melanoma
MALME-3M melanoma = tested on: MALME-3M melanoma
EKVX NSCLC = tested on: EKVX NSCLC
SF-268 CNS = tested on: SF-268 CNS
NCI-H522 lung = tested on: NCI-H522 lung
MDA-MB-231 breast = tested on: MDA-MB-231 breast
OVCAR-5 ovarian = tested on: OVCAR-5 ovarian
SF-295 CNS = tested on: SF-295 CNS
HOP-62 NSCLC = tested on: HOP-62 NSCLC
SF-539 CNS = tested on: SF-539 CNS
UO-31 renal = tested on: UO-31 renal
COLO 205 colon = tested on: COLO 205 colon

With `Cc1ccc2ccc3ccc(C)nc3c2n1.Cc1ccc2ccc3ccc(C)nc3c2n1.Oc1c(Cl)cc(Cl)c2ccc(CN3CCCCC3)nc12.[Ru]` the GI50 (DU-145 prostate) was 494 nM, the TGI (DU-145 prostate) was 4910 nM and the GI50 (UACC-257 melanoma) was 350 nM. It also gave a TGI (UACC-257 melanoma) of 1230 nM, a GI50 (NCI/ADR-RES ovarian) of 2700 nM and a TGI (NCI/ADR-RES ovarian) of 7990 nM. It also gave a GI50 (RPMI-8226 leukemia) of 223 nM, a TGI (RPMI-8226 leukemia) of 876 nM and a GI50 (HCT-116 colon) of 247 nM. The TGI (HCT-116 colon) was 1230 nM, the GI50 (SW-620 colon) was 381 nM and the TGI (SW-620 colon) was 1610 nM. It also gave a GI50 (U251 CNS) of 218 nM, a TGI (U251 CNS) of 1160 nM and a GI50 (MOLT-4 leukemia) of 461 nM. For the same molecule, the TGI (MOLT-4 leukemia) was 2220 nM, the GI50 (HCC-2998 colon) was 414 nM and the TGI (HCC-2998 colon) was 1580 nM. For the same molecule, the GI50 (HCT-15 colon) was 1280 nM, the TGI (HCT-15 colon) was 2770 nM and the GI50 (HOP-92 NSCLC) was 109 nM. The TGI (HOP-92 NSCLC) was 835 nM, the GI50 (BT-549 breast) was 337 nM and the TGI (BT-549 breast) was 931 nM. The GI50 (A549 NSCLC) was 326 nM, the TGI (A549 NSCLC) was 1280 nM and the GI50 (MDA-MB-435) was 333 nM. The TGI (MDA-MB-435) was 1230 nM, the GI50 (NCI-H23 lung) was 300 nM and the TGI (NCI-H23 lung) was 1130 nM. It also gave a GI50 (CAKI-1 renal) of 1430 nM, a TGI (CAKI-1 renal) of 2830 nM and a GI50 (SK-MEL-28 melanoma) of 513 nM. It also gave a TGI (SK-MEL-28 melanoma) of 1780 nM, a GI50 (SNB-19 CNS) of 331 nM and a TGI (SNB-19 CNS) of 1280 nM. It also gave a GI50 (PC-3 prostate) of 303 nM, a TGI (PC-3 prostate) of 1500 nM and a GI50 (SR leukemia) of 345 nM. The TGI (SR leukemia) was 1750 nM, the GI50 (SK-MEL-2 melanoma) was 613 nM and the TGI (SK-MEL-2 melanoma) was 1840 nM. The GI50 (OVCAR-3 ovarian) was 387 nM, the TGI (OVCAR-3 ovarian) was 1380 nM and the GI50 (SK-OV-3 ovarian) was 293 nM. The TGI (SK-OV-3 ovarian) was 1070 nM, the GI50 (KM12 colon) was 411 nM and the TGI (KM12 colon) was 1520 nM. For the same molecule, the GI50 (HS 578T breast) was 354 nM, the TGI (HS 578T breast) was 2320 nM and the GI50 (TK-10 renal) was 734 nM. For the same molecule, the TGI (TK-10 renal) was 2070 nM, the GI50 (LOX IMVI melanoma) was 341 nM and the TGI (LOX IMVI melanoma) was 1230 nM. It also gave a GI50 (CCRF-CEM leukemia) of 423 nM, a TGI (CCRF-CEM leukemia) of 2200 nM and a GI50 (SK-MEL-5 melanoma) of 675 nM. The TGI (SK-MEL-5 melanoma) was 1860 nM, the GI50 (OVCAR-4 ovarian) was 362 nM and the TGI (OVCAR-4 ovarian) was 1840 nM. It also gave a GI50 (SNB-75 CNS) of 243 nM, a TGI (SNB-75 CNS) of 1120 nM and a GI50 (ACHN renal) of 1650 nM. The TGI (ACHN renal) was 3230 nM, the GI50 (A498 renal) was 1760 nM and the TGI (A498 renal) was 4020 nM. The GI50 (K-562 leukemia) was 253 nM, the TGI (K-562 leukemia) was 1890 nM and the GI50 (RXF 393 renal) was 714 nM. For the same molecule, the TGI (RXF 393 renal) was 1990 nM, the GI50 (786-0 renal) was 542 nM and the TGI (786-0 renal) was 1780 nM. The GI50 (UACC-62 melanoma) was 445 nM, the TGI (UACC-62 melanoma) was 1670 nM and the GI50 (M14 melanoma) was 383 nM. For the same molecule, the TGI (M14 melanoma) was 1440 nM, the GI50 (MALME-3M melanoma) was 248 nM and the TGI (MALME-3M melanoma) was 666 nM. The GI50 (EKVX NSCLC) was 363 nM, the TGI (EKVX NSCLC) was 2210 nM and the GI50 (SF-268 CNS) was 447 nM. The TGI (SF-268 CNS) was 2210 nM, the GI50 (NCI-H522 lung) was 363 nM and the TGI (NCI-H522 lung) was 2130 nM. The GI50 (MDA-MB-231 breast) was 295 nM, the TGI (MDA-MB-231 breast) was 909 nM and the GI50 (OVCAR-5 ovarian) was 599 nM. It also gave a TGI (OVCAR-5 ovarian) of 3010 nM, a GI50 (SF-295 CNS) of 286 nM and a TGI (SF-295 CNS) of 1160 nM. It also gave a GI50 (HOP-62 NSCLC) of 409 nM, a TGI (HOP-62 NSCLC) of 1410 nM and a GI50 (SF-539 CNS) of 366 nM. The TGI (SF-539 CNS) was 1290 nM, the GI50 (UO-31 renal) was 1720 nM and the TGI (UO-31 renal) was 3880 nM. The GI50 (COLO 205 colon) was 195 nM and the TGI (COLO 205 colon) was 429 nM.

— PubChem BioAssay (NCI)
